We go through twelve compounds from ChEMBL document CHEMBL3045837, “Tobacco mosaic virus (TMV) inhibitors from Picrasma quassioides Benn” (J Agric Food Chem, 2009).

Activity calls are given as the source filed them. The rule behind the calls is not given here.

In test [1] the test system is Tobacco mosaic virus. In words: Antiviral activity against Tobacco mosaic virus U1 (TMV) infected Nicotiana tabacum cv. K326 leaves assessed as inhibition of viral replication at 50 ug/mL in presence of 25 ug/mL quassinoid nigakilactone B measured 48 hr after compound exposure by leaf-disk method. In kind it is functional.
In test [2] the test system is Tobacco mosaic virus. In words: Antiviral activity against Tobacco mosaic virus U1 (TMV) infected Nicotiana glutinosa leaves assessed as inhibition of viral replication at 50 ug/mL in presence of 25 ug/mL quassinoid nigakilactone B measured 48 hr after compound exposure by half leaf method. It is filed as functional.
Test [3] has as its system Tobacco mosaic virus. Description: Antiviral activity against Tobacco mosaic virus U1 (TMV) infected Nicotiana glutinosa leaves assessed as inhibition of viral infection at 50 ug/mL using compound pre-treated virus suspension measured 5 to 6 days after compound exposure. In kind it is functional. As to conditions: U1, in Nicotiana glutinosa.
Test [4] has as its system Tobacco mosaic virus. Description: Antiviral activity against Tobacco mosaic virus U1 (TMV) infected Nicotiana glutinosa leaves assessed as inhibition of viral infection at 50 ug/mL using compound pre-treated virus suspension in presence of 25 ug/mL quassinoid nigakilactone B measured 5 to 6 days after compound exposure. In kind it is functional.
Test [5] has as its system Tobacco mosaic virus. Description: Antiviral activity against Tobacco mosaic virus U1 (TMV) infected Nicotiana glutinosa leaves assessed as inhibition of viral replication at 50 ug/mL measured 48 hr after compound exposure by half leaf method. Conditions: U1, in Nicotiana glutinosa. In kind it is functional.
Test [6] deals with Tobacco mosaic virus. In words: Antiviral activity against Tobacco mosaic virus U1 (TMV) infected Nicotiana tabacum cv. K326 leaves assessed as inhibition of viral replication at 50 ug/mL measured 48 hr after compound exposure by leaf-disk method. In kind it is functional. As to conditions: U1, 48 h.
Test [7] relates to Tobacco mosaic virus. Description: Antiviral activity against Tobacco mosaic virus U1 (TMV) infected Nicotiana tabacum cv. K326 leaves assessed as inhibition of viral replication in presence of 25 ug/mL quassinoid nigakilactone B measured 48 hr after compound exposure by leaf-disk method. In kind it is functional, organism-based. As to conditions: U1, 48 h.
The subject of test [8] is Tobacco mosaic virus. In words: Antiviral activity against Tobacco mosaic virus U1 (TMV) infected Nicotiana tabacum cv. K326 leaves assessed as inhibition of viral replication measured 48 hr after compound exposure by leaf-disk method. As to conditions: U1, 48 h. In kind it is functional, organism-based.
Test [9] deals with Tobacco mosaic virus. Description: Inhibition of Tobacco mosaic virus U1 (TMV) coat protein accumulation using virus infected Nicotiana tabacum cv. K326 leaves at 50 ug/mL by SDS-PAGE and Western blotting method. It is filed as functional, organism-based.
In test [10] the test system is Tobacco mosaic virus. Description: Inhibition of Tobacco mosaic virus U1 (TMV) coat protein accumulation using virus infected Nicotiana tabacum cv. K326 leaves by SDS-PAGE and Western blotting method. In kind it is functional, organism-based. A general note: A western blot detects proteins with antibodies after separation by electrophoresis.

For orientation: inhibition means the share of the control response that was lost under treatment. Consider `CCc1nccc2c1[nH]c1c(OC)cccc12`, for which the “inhibition (INH)” value is reported as 48.4% in the test on Tobacco mosaic virus [1], 36.4% with Tobacco mosaic virus [2] and 50% in the test with Tobacco mosaic virus [4]. Besides, the figures for the inhibition at 50 µg/mL with Tobacco mosaic virus [3], with Tobacco mosaic virus [5] and with Tobacco mosaic virus [6] were 45.5%, 25% and 20.9%, respectively.
By EC50 is commonly meant the midpoint of the concentration-response curve. On to `COc1cccc2c3c([nH]c12)C(=O)NC(=O)C3=O`, for which the EC50 with Tobacco mosaic virus [7] was 183 µM; in the test on Tobacco mosaic virus [8], 257 µM. The “inhibition (INH)” value amounted to 59.8% with Tobacco mosaic virus [1], 47.3% in the test with Tobacco mosaic virus [2] and 55.9% in the test with Tobacco mosaic virus [4]. The figures for the inhibition at 50 µg/mL in the test on Tobacco mosaic virus [3], in the test on Tobacco mosaic virus [5] and in the test with Tobacco mosaic virus [6] were 50%, 39.5% and 35.1%, respectively.
With `COc1cccc2c1[nH]c1c(CCC(=O)c3nccc4c3[nH]c3ccccc34)ncc(OC)c12`, the EC50 in the test with Tobacco mosaic virus [7] worked out at 78 µM; with Tobacco mosaic virus [8] it was 131 µM. Also, the entries for the “inhibition (INH)” value with Tobacco mosaic virus [1], in the test with Tobacco mosaic virus [2] and with Tobacco mosaic virus [4] were 64.8%, 52.4% and 68.3%, respectively. The inhibition at 50 µg/mL in the test on Tobacco mosaic virus [3] was 45.5%; in the test with Tobacco mosaic virus [5], 39.4%; in the test with Tobacco mosaic virus [6], 28.9%.
As to `CNCC(=O)N[C@@H](CO)C(=O)N[C@H]1[C@H](O)[C@@H](O)[C@H](n2ccc(N)nc2=O)O[C@@H]1C(N)=O` [NINGNANMYCIN], the EC50 in the test with Tobacco mosaic virus [7] was determined as 129 µM; with Tobacco mosaic virus [8], 135 µM. In addition, the figures for the “inhibition (INH)” value in the test with Tobacco mosaic virus [1], in the test with Tobacco mosaic virus [2] and with Tobacco mosaic virus [4] were 52.6%, 53.8% and 55.6%, respectively. Further, the inhibition at 50 µg/mL with Tobacco mosaic virus [3] amounted to 60%; in the test on Tobacco mosaic virus [5] it was 54.5%; in the test on Tobacco mosaic virus [6] it was 51%.
As for `COc1cc2nccc3c4ccccc4n(c1=O)c23` [5-METHOXYCANTHINONE], the “inhibition (INH)” value with Tobacco mosaic virus [1] is 45.7%; with Tobacco mosaic virus [2] it was 50%; in the test on Tobacco mosaic virus [4] it was 58.3%. For the same compound, the inhibition at 50 µg/mL turned out to be 36.4% in the test on Tobacco mosaic virus [3], 40% in the test with Tobacco mosaic virus [5] and 27.5% with Tobacco mosaic virus [6].
In the case of `COc1c(OC)c2nccc3c4ccccc4n(c1=O)c23` [4,5-DIMETHOXYCANTHIN-6-ONE], the EC50 in the test with Tobacco mosaic virus [7] is 130 µM; with Tobacco mosaic virus [8], 189 µM. The “inhibition (INH)” value in the test on Tobacco mosaic virus [1] was 59%; in the test on Tobacco mosaic virus [2], 43.8%; in the test with Tobacco mosaic virus [4], 61.1%. The inhibition at 50 µg/mL stood at 58.3% with Tobacco mosaic virus [3], 33.3% in the test on Tobacco mosaic virus [5] and 42.6% with Tobacco mosaic virus [6].
Turning to `COC(=O)c1ncc(O)c2c1[nH]c1ccccc12`, the “inhibition (INH)” value worked out at 62.3% in the test on Tobacco mosaic virus [1], 55.6% in the test on Tobacco mosaic virus [2] and 69.2% with Tobacco mosaic virus [4]. In addition, the inhibition at 50 µg/mL with Tobacco mosaic virus [3] came to 60%; with Tobacco mosaic virus [5] it was 41.7%; in the test on Tobacco mosaic virus [6] it was 45.7%.
As for `COC1=C[C@@H](C)[C@@H]2C[C@H]3OC(=O)C[C@H]4[C@@H](C)[C@H](OC)[C@@H](O)[C@H]([C@@]2(C)C1=O)[C@@]34C` [NIGAKILACTONE B], the inhibition at 50 µg/mL was 10% in the test on Tobacco mosaic virus [3], 6.7% in the test with Tobacco mosaic virus [5] and 3.2% in the test on Tobacco mosaic virus [6]. Also, the inhibition entry in the test on Tobacco mosaic virus [9] was “inactive”.
For `C=Cc1ncc(OC)c2c1[nH]c1c(OC)cccc12`, the “inhibition (INH)” value was 63% in the test with Tobacco mosaic virus [1], 47.1% in the test with Tobacco mosaic virus [2] and 58.3% in the test with Tobacco mosaic virus [4]. The inhibition at 50 µg/mL in the test on Tobacco mosaic virus [3] turned out to be 53.3%; with Tobacco mosaic virus [5], 38.5%; in the test with Tobacco mosaic virus [6], 39.7%.
Regarding `O=C1NC(=O)c2[nH]c3ccccc3c2C1=O`, the “inhibition (INH)” value with Tobacco mosaic virus [1] came to 35.8%; with Tobacco mosaic virus [2] it was 33.3%; in the test with Tobacco mosaic virus [4] it was 52.1%. In addition, the inhibition at 50 µg/mL in the test with Tobacco mosaic virus [3] amounted to 44.4%; in the test on Tobacco mosaic virus [5] it was 29.4%; in the test on Tobacco mosaic virus [6], 29.5%.
Take `COC(=O)c1nccc2c1[nH]c1ccccc12`: the EC50 came out at 115 µM in the test on Tobacco mosaic virus [7] and 179 µM with Tobacco mosaic virus [8]. Also, the “inhibition (INH)” value in the test on Tobacco mosaic virus [1] came to 71.9%; in the test with Tobacco mosaic virus [2] it was 68.4%; in the test with Tobacco mosaic virus [4] it was 73.3%. Also, the inhibition result with Tobacco mosaic virus [10] was “Dose-dependent effect”. Moreover, the figures for the inhibition at 50 µg/mL in the test on Tobacco mosaic virus [3], in the test on Tobacco mosaic virus [5] and in the test on Tobacco mosaic virus [6] were 71.4%, 47.4% and 60.4%, respectively.
As to `COc1c(O)c2nccc3c4ccccc4n(c1=O)c23` [PICRASIDINE Q], the “inhibition (INH)” value with Tobacco mosaic virus [1] stood at 52.6%; in the test with Tobacco mosaic virus [2] it was 53.8%; with Tobacco mosaic virus [4] it was 66.7%. The inhibition at 50 µg/mL in the test with Tobacco mosaic virus [3] is 42.9%; in the test on Tobacco mosaic virus [5] it was 35.7%; in the test with Tobacco mosaic virus [6], 25.6%.
